From patent US20230301972A1, “ANTI-FIBROTIC COMPOSITION AND RELATED METHODS” (Fred Hutchinson Cancer Center, priority 2020, published 2023)

Legend:
Assay type in all cases: cell-based, human
[1] = system: LX2 cells; experiment: qPCR of TGF-β-induced gene expression in LX2 cells; settings: galunisertib
Method: (§1) LX2 cells were obtained from Sigma Aldrich (Cat #SCC064). LX2 cells were grown at 37° C. under 5% CO2, 95% ambient atmosphere and maintained in Dulbecco's […] (DMEM) supplemented with 10% FBS (Sigma) and 1% Penn Strep.
(§2) FIGS. 10B and 10C: LX2 cells were incubated with TGF-β alone at 6.5 ng/ml or TGF-β with indicated drugs for 48 hours. Total cellular RNA was isolated using a RNeasy Mini Kit (QIAGEN). 1 μg of total RNA was reverse transcribed into first-strand cDNA using an RT2 First Strand Kit (QIAGEN). The resultant cDNA was subjected to qPCR using indicated human primers to measure the changes in mRNA expression of indicated human genes.

[2] = system: LX2 cells; experiment: Live cell wound healing assay in LX2 cells; settings: 1 μM; TGFb 6.5 ng/ml; wound closure density at 50 hour
Method: as §1
FIG. 10A: LX2 cells were plated on 96-well plates (Essen Image Lock, Essen Instruments). […] Wound closure was monitored with Incucyte Live-Cell Imaging System and software (Essen Instruments) every 2-4 hours for 72 hours. The mean relative wound density of at least three biological replicates was calculated. The wound density correlates with the cell motility. Plotted is the wound closure density at 50 hour.

[3] = system: IPF-LL29 and IPF-LL97A cells; experiment: qPCR of TGF-β-induced gene expression in IPF-LL29 and IPF-LL97A cells; settings: nintedanib at a same equivalent dose, pirfenidone at a much higher dose; FIGS. 2A, 2B, 3A, 3B
Method: IPF-LL29, IPF-LL97A, and human lung fibroblast LL47 cell lines were purchased from ATCC. Mouse lung fibroblasts were isolated from the lungs of male C57BL/6J mice. Cells were grown at 37° C. under 5% CO2, 95% ambient atmosphere and maintained in Dulbecco's […] (DMEM) supplemented with 10% FBS (Sigma) and 1% Penn Strep.
as §2, with “2A” for “10B”, “2B. IPF-29 (FIG. 2A) or IPF-97A (FIG. 2B)” for “10C: LX2”, “5” for “6.5”, “hours and 5 days.” for “hours.”

## Cc1cccc(-c2nn3c(c2-c2ccnc4ccc(C(N)=O)cc24)CCC3)n1 [galunisertib, reference compound]
[1]
  effect on TGF-β-induced expression of COL1A1 and αSMA: modest effect
[2]
  TGF-β-induced motility of LX2 cells: did not affect LX2 cell motility

## COC(=O)c1ccc2c(c1)NC(=O)/C2=C(\Nc1ccc(N(C)C(=O)CN2CCN(C)CC2)cc1)c1ccccc1 [nintedanib, reference compound]
[3]
  TGF-β induced expression of myofibroblast activation marker genes or proliferation stimuli: did not effectively block

## Cc1ccc(=O)n(-c2ccccc2)c1 [pirfenidone, reference compound]
[3]
  TGF-β induced expression of myofibroblast activation marker genes or proliferation stimuli: did not effectively block
